Test results taken from patent publication US20080227813A1, “Pharmaceutical compositions and methods for treating diseases associated with neurodegeneration” (priority 2006, published 2008).
Read-outs that look alike come from different tables or passages of the source.

Columns and labels:
[1] = tested on: CRL:(WI)BR rats; assay: Acute intraperitoneal toxicity in rats; assay type: in vivo; conditions: rat
Description: Acute intraperitoneal toxicity studies were performed in rats (CRL(WI:)BR) and in mice (CRL: NMRI BR).
A control and five dose groups were involved in the rat study at dose levels of 500 mg/kg, 650 mg/kg, 800 mg/kg, 950 mg/kg and 1200 mg/kg (equal to 310 mg/kg, 403 mg/kg, 496 mg/kg, 589 mg/kg and 744 mg/kg free base, n=5 animals/sex/group).

[2] = tested on: rats; assay: 180-day repeated dose oral toxicity study in rats
Description: A six-month repeated dose oral toxicity study of Compound I was performed in rats involving a control (physiologic saline, n=32/sex) and dose groups of 200 mg/kg/day, 400 mg/kg/day and 900 mg/kg/day (equal to 124 mg/kg, 248 mg/kg and 558 mg/kg free base, n=20/sex, 20/sex and 32/sex, respectively). The test item was dissolved in distilled water. Treatment was carried out by a stomach tube daily. The application volume was adjusted weekly according to the animal's body weight changes.
Clinical observations were made once daily. Body weight and food consumption were measured and evaluated weekly. Urine collection, blood sampling for hematological, clinical chemistry evaluation and gross necropsy were conducted at the end of the treatment period. Full histopathologic examination was performed on the preserved organs and tissues of the vehicle control and high dose groups. In addition, the liver, kidneys, testes, epididymis and organs showing macroscopic alterations were examined microscopically in the low and medium doses.
Compound I content (pre-dose concentration) was determined in serum on days 1, 49, 111 and 173. The serum samples were analyzed by liquid/liquid extraction, and ion-pair HPLC. Twelve animals per sex of the controls and high dose groups were kept alive for a 28-day post-treatment recovery period. They were processed in the same way as animals at the termination of treatment.

[3] = tested on: CRL:NMRI BR mice; assay: Acute intravenous toxicity in mice; assay type: in vivo; conditions: mouse
Description: A control and five dose groups were involved in the mouse study, at dose levels of 200 mg/kg, 250 mg/kg, 300 mg/kg, 360 mg/kg and 450 mg/kg (equal to […], 155 mg/kg, 186 mg/kg, 223 mg/kg and 279 mg/kg free base, n=5 animals/sex/group).

[4] = tested on: CRL:(WI)BR rats; assay: Acute intravenous toxicity in rats; assay type: in vivo; conditions: rat
Description: A control and five dose groups were involved in the rat study at dose levels of 150 mg/kg, 200 mg/kg, 250 mg/kg, 300 mg/kg and 350 mg/kg (equal to 93 mg/kg, 124 mg/kg, 155 mg/kg, 186 mg/kg and 217 mg/kg free base, n=5 animals/sex/group).

[5] = Double-blind multiple oral dose pharmacokinetics in male healthy volunteers
Description: The study was designed to compare the pharmacokinetic profile of Compound I from the following dose regimens: • A: Administration of 1 capsule containing 50 mg of Compound I or of 1 capsule of placebo, three times a day, total dose 150 mg. • B: Administration of 1 capsule containing 100 mg of Compound I or of 1 capsule of placebo, three times a day, total dose 300 mg.
The treatments were applied in parallel groups. […] The study was conducted according to the study protocol and in accordance with GCP.

[6] = tested on: Beagle dogs; assay: 14-day repeated dose oral toxicity study in Beagle dogs; assay type: in vivo; conditions: dog, 210 mg/kg/day oral, 14 days
Description: The control animals were treated in the same way with placebo gelatin capsules.
The checks of mortality were done twice daily. The clinical observations were performed at least twice daily and the weighing of non-consumed food was done daily. The body weights of the animals were measured once a week. The hematological, clinical chemical and ECG investigations, urinalysis and the opthalmological examinations were performed prior to the treatment and at the end of the treatment period. Terminally gross necropsy and histopathological examinations were performed according to the study plan.

[7] = rat, in vivo
[8] = dog, in vivo, po
Description: Four animals of both sexes/groups were used, except the control and high dose group where the groups were completed with 2 recovery animals in both sexes.
The check of mortality and the clinical observations were performed twice daily, the weighing of non-consumed food was done daily. The body weight of the animals was measured once a week. The urine, hematological, clinical chemical and ECG investigations were performed before the first treatment day and at termination of the treatment and at the end of the recovery period. The blood samples for kinetic analysis were taken in the 2nd and in the 104th, 110th and 111th treatment days. The opthalmoscopic examinations were performed prior to the treatment, at termination of the treatment and at the end of the recovery period. Terminally gross necropsy and histopathological examinations were performed in all animals.

Structure (SMILES): [O-][n+]1cccc(/C(Cl)=N/OC[C@H](O)CN2CCCCC2)c1 [Compound I, N-[2-hydroxy-3-(1-piperidinyl)-propoxy]-pyridine-1-oxide-3-carboximidoyl chloride]
- Intraperitoneal LD50 value ([1]; female, by base): 770 - by base mg/kg
- Intraperitoneal LD50 value ([1]; female, by citrate): 1241 - by citrate mg/kg
- Intraperitoneal LD50 value ([1]; male, by base): 698 (577-3871) by base mg/kg
- Intraperitoneal LD50 value ([1]; male, by citrate): 1125 (931-6241) by citrate mg/kg
- mortality ([2]; rat, 200, 400, 900 mg/kg/day oral, six months): No test item related mortality occurred
- NOEL ([2]; rat, both sexes, six-month oral): 200 mg/kg/day
- accumulation in serum ([2]; rat, in vivo, po): No accumulation
- Intravenous LD50 value ([3]; female, by base): 158 - by base mg/kg
- Intravenous LD50 value ([3]; female, by citrate): 254 - by citrate mg/kg
- Intravenous LD50 value ([3]; male, by base): 190 (164-223) by base mg/kg
- Intravenous LD50 value ([3]; male, by citrate): 307 (265-359) by citrate mg/kg
- Intravenous LD50 value ([4]; female, by base): 215 (190-764) by base mg/kg
- Intravenous LD50 value ([4]; female, by citrate): 346 (306-1232) by citrate mg/kg
- Intravenous LD50 value ([4]; male, by base): 197 (168-301) by base mg/kg
- Intravenous LD50 value ([4]; male, by citrate): 317 (271-485) by citrate mg/kg
- dose-adjusted AUC0-8 h ratio (2×50 mg dosing level/100 mg dosing level) ([5]; Day 1): 0.95
- dose-adjusted Cmax ratio (2×50 mg dosing level/100 mg dosing level) ([5]; Day 1): 0.94
- dose-adjusted AUC0-8 h ratio (2×50 mg dosing level/100 mg dosing level) ([5]; Day 10): 1.02
- dose-adjusted Cmax ratio (2×50 mg dosing level/100 mg dosing level) ([5]; Day 10): 0.88
- Racc accumulation ratio = AUC0-8 Day 10/AUC0-8 Day 1, GeoM ([5]; Treatment A, 50 mg tid): 1.512
- Racc accumulation ratio = AUC0-8 Day 10/AUC0-8 Day 1, MEAN ([5]; Treatment A, 50 mg tid): 1.525
- Racc accumulation ratio = AUC0-8 Day 10/AUC0-8 Day 1, MEAN ([5]; Treatment B, 100 mg tid): 1.426
- Racc accumulation ratio = AUC0-8 Day 10/AUC0-8 Day 1, GeoM ([5]; continuation of Treatment B (100 mg tid) under a head printed as Treatment A): 1.415
- AUC0-inf, GeoM ([5]; human, in vivo, 50 mg): 680 ng·h/mL
- AUC0-inf, MEAN ([5]; human, in vivo, 50 mg): 691 ng·h/mL
- AUC0-tz, GeoM ([5]; human, in vivo, 50 mg): 621 ng·h/mL
- AUC0-tz, MEAN ([5]; human, in vivo, 50 mg): 632 ng·h/mL
- LinPK = AUC0-8 Day 10/AUC0-inf, GeoM ([5]; human, in vivo, 50 mg): 1.148
- LinPK = AUC0-8 Day 10/AUC0-inf, MEAN ([5]; human, in vivo, 50 mg): 1.166
- AUC0-8, MEAN ([5]; human, in vivo, 100 mg): 1101 ng·h/mL
- AUC0-inf, GeoM ([5]; human, in vivo, 100 mg): 1303 ng·h/mL
- AUC0-inf, MEAN ([5]; human, in vivo, 100 mg): 1344 ng·h/mL
- AUC0-tz, GeoM ([5]; human, in vivo, 100 mg): 1266 ng·h/mL
- AUC0-tz, MEAN ([5]; human, in vivo, 100 mg): 1307 ng·h/mL
- AUCt, MEAN ([5]; human, in vivo, 100 mg): 1540 ng·h/mL
- LinPK = AUC0-8 Day 10/AUC0-inf, GeoM ([5]; human, in vivo, 100 mg): 1.172
- LinPK = AUC0-8 Day 10/AUC0-inf, MEAN ([5]; human, in vivo, 100 mg): 1.187
- ECG or ophthalmological alterations [6]: no direct treatment related ECG or opthalmological alterations
- clinical signs [6]: decreased activity, tremor, ptosis, salivation, increased muscle tone, vomiting and thin feces
- liver histopathology [6]: moderate degree proliferation of cells belonging to the mononuclear phagocyte system (MPS) of the liver
- mortality [6]: no death occurred
- clearance [7]: higher than the hepatic clearance
- time of peak serum values ([7]; po, 25.8 mg/kg): 15 min
- AUCtot ([8]; 50 mg/kg/day): 40220 ng·h/mL
- Cmax ([8]; 50 mg/kg/day): 10840 ng/mL
- MRT ([8]; 50 mg/kg/day): 3.78 h
- Tmax ([8]; 50 mg/kg/day): 1.78 h
- clearance ([8]; 50 mg/kg/day): 13 mL/min/kg
- t½ ([8]; 50 mg/kg/day): 1.89 h
- AUCtot ([8]; 80 mg/kg/day): 87010 ng·h/mL
- Cmax ([8]; 80 mg/kg/day): 22000 ng/mL
- MRT ([8]; 80 mg/kg/day): 4.04 h
- Tmax ([8]; 80 mg/kg/day): 1.88 h
- clearance ([8]; 80 mg/kg/day): 9.5 mL/min/kg
- t½ ([8]; 80 mg/kg/day): 2.10 h
- AUCtot ([8]; 160 mg/kg/day): 166390 ng·h/mL
- Cmax ([8]; 160 mg/kg/day): 37950 ng/mL
- MRT ([8]; 160 mg/kg/day): 4.57 h
- Tmax ([8]; 160 mg/kg/day): 1.94 h
- clearance ([8]; 160 mg/kg/day): 10.3 mL/min/kg
- t½ ([8]; 160 mg/kg/day): 2.44 h
